# What was measured:
# CYP1A1 = CYP1A1 (Homo sapiens, UniProt P04798); experiment: in vitro
# Description: Inhibition of recombinant human CYP1A1 expressed in Escherichia coli DH5aplha cells assessed as O-deethylation of ethoxyresorufin in presence of NADPH at 100 uM measured after 2 mins by spectrofluorometric method
# CYP1B1 = molecular target: T1, CYP1B1 (Homo sapiens, UniProt Q16678); experiment: in vitro
# T1 sequence (Q16678 whole entry): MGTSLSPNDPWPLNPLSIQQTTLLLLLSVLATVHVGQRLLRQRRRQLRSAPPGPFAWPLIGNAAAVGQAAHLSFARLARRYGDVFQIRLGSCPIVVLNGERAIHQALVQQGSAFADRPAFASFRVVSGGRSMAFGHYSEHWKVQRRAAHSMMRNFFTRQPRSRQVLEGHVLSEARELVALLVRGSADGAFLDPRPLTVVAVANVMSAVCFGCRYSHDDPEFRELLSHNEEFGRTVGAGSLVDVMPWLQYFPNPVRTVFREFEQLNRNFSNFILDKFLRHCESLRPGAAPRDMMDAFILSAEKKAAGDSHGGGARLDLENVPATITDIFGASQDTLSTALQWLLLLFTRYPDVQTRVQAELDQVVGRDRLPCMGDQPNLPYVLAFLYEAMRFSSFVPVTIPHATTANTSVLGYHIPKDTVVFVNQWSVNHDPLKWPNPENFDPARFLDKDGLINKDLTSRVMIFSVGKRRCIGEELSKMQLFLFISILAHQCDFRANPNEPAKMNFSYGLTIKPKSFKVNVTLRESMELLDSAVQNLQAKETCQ
# Description: Inhibition of recombinant human CYP1B1 expressed in Escherichia coli DH5aplha cells assessed as O-deethylation of ethoxyresorufin in presence of NADPH at 100 uM measured after 2 mins by spectrofluorometric method
# Cytochrome P450 1A1 = Cytochrome P450 1A1 (Homo sapiens, UniProt P04798)
# Description: Inhibition of recombinant human CYP1A1 expressed in Escherichia coli DH5aplha cells assessed as O-deethylation of ethoxyresorufin in presence of NADPH measured after 2 mins by spectrofluorometric method
# Cytochrome P450 1B1 = molecular target: T2, Cytochrome P450 1B1 (Homo sapiens, UniProt Q16678)
# T2 sequence (Q16678 whole entry): T1 sequence (Q16678 whole entry)
# Description: Inhibition of recombinant human CYP1B1 expressed in Escherichia coli DH5aplha cells assessed as O-deethylation of ethoxyresorufin in presence of NADPH measured after 2 mins by spectrofluorometric method
# [1] = probe ethoxyresorufin (O-deethylation)
# CYP1A1, sequence (P04798 whole entry): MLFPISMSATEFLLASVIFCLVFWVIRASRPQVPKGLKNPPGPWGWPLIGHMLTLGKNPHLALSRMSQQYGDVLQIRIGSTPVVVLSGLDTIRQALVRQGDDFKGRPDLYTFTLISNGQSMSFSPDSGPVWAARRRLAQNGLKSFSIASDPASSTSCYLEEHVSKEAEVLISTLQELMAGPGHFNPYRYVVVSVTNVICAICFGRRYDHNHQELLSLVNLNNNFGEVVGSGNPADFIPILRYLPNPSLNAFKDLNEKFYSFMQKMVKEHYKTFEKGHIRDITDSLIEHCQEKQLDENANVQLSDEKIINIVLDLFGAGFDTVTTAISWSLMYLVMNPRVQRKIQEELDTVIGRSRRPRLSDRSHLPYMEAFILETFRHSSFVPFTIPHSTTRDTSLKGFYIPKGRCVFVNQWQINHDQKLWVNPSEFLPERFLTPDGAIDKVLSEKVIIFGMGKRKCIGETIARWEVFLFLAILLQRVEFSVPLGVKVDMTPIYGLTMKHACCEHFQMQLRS
# Cytochrome P450 1A1, sequence (P04798 whole entry): as above
SMILES,"activity at 2 min, 100 µM (CYP1A1; [1]) [%]","activity at 2 min, 100 µM (CYP1B1; [1]) [%]",IC50 (Cytochrome P450 1A1) [µM],IC50 (Cytochrome P450 1B1) [µM],"activity at 2 min, 100 µM (CYP1B1) [%]","activity at 2 min, 100 µM (CYP1A1) [%]"
O=[N+]([O-])c1ccc(/N=N/N2CCOCC2)cc1,79,–,115,2,16,–
c1ccc(/N=N/N2CCOCC2)cc1,56,74,120,163,–,–
O=C(O)c1ccc(/N=N/N2CCOCC2)cc1,67,81,167,400,–,–
Nc1ccc(Br)cc1 [4-BROMOANILINE],100,94,–,–,–,–
Nc1ccc([N+](=O)[O-])cc1 [4-NITROANILINE],100,92,–,–,–,–
Nc1ccccc1 [ANILINE],100,100,–,–,–,–
C1COCCN1 [MORPHOLINE],–,–,–,–,100,91

# Further lines, with some results ahead:
"activity at 2 min, 100 µM (CYP1A1; [1]) [%]","activity at 2 min, 100 µM (CYP1B1; [1]) [%]",IC50 (Cytochrome P450 1A1) [µM],IC50 (Cytochrome P450 1B1) [µM],"activity at 2 min, 100 µM (CYP1B1) [%]",SMILES,"activity at 2 min, 100 µM (CYP1A1) [%]"
95,100,–,–,–,COc1cc(N)cc(OC)c1OC,–
8,14,10,18,–,COc1cc(/N=N/N2CCOCC2)cc(OC)c1OC,–
70,100,82,–,–,CC(=O)c1ccc(/N=N/N2CCOCC2)cc1,–
–,59,63,7,–,Brc1ccc(/N=N/N2CCOCC2)cc1,53
100,75,–,> 120,–,Nc1ccc(C(=O)O)cc1 [AMINOBENZOIC ACID],–
11,–,34,55,56,Oc1ccc(/C=C/c2cc(O)cc(O)c2)cc1 [RESVERATROL],–
